Measured values reported in US20240208968A1, “ALPHA V BETA 6 AND ALPHA V BETA 1 INTEGRIN INHIBITORS AND USES THEREOF” (DiCE Molecules SV, Inc., priority 2021, published 2024).
Where a name gives a salt, the structure may show the parent alone.

Assays:
αvβ1 = αvβ1 (Homo sapiens, UniProt P05556+P06756); assay: Solid Phase Integrin αvβ1 Assay; format: binding
In short: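 Compound competes for αvβ1 binding to immobilized TGFb1-LAP (1 µg/mL coat) in Mn2+ (1 mM MnCl2), 2% BSA binding buffer over 90 min at room temperature, integrin added at 0.2 µg/mL. Read-out: streptavidin-HRP/TMB; IC50 from Levenberg-Marquardt four-parameter fit.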

αvβ6 = αvβ6 (Homo sapiens, UniProt P06756+P18564); assay: Solid Phase Integrin αvβ6 Assay; format: binding
In short: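 Inhibition of αvβ6 binding to immobilized recombinant TGFb1-LAP (1 μg/mL coating), 1 h at room temperature with 1 mM MnCl2 in BSA/TBST buffer, integrin diluted to 0.2 μg/mL before addition. Streptavidin-HRP/TMB read-out; four-parameter logistic fitting gave IC50.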

αvβ6, sequence (P06756 31-992 limits assumed): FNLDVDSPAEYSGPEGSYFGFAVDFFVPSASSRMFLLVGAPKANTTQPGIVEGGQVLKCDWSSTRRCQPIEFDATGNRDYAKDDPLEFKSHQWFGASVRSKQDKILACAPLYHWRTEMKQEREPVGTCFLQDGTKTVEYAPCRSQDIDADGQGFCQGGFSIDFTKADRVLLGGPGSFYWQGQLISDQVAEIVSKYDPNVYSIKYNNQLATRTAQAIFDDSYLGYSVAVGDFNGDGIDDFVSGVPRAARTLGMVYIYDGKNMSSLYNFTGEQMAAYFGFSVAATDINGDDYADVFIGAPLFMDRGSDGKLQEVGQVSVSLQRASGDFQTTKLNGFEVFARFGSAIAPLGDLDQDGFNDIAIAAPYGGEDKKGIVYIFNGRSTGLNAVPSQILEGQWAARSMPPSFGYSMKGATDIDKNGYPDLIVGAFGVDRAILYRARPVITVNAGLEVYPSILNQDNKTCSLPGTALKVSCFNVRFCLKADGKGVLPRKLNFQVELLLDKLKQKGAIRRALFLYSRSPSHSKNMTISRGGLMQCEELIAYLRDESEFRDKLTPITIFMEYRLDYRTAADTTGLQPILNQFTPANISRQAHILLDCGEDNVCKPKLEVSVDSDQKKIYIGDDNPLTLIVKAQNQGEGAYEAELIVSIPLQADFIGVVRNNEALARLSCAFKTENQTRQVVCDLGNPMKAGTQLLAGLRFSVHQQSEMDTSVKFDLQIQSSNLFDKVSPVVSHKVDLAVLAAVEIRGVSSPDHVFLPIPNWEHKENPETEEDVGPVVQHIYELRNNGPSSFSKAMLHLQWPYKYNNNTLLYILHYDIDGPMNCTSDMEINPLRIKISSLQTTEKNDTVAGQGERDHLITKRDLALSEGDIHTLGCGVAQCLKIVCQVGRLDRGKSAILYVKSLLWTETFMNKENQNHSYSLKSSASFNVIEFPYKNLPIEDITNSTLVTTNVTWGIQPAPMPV
αvβ6, sequence (P18564 22-707 limits assumed): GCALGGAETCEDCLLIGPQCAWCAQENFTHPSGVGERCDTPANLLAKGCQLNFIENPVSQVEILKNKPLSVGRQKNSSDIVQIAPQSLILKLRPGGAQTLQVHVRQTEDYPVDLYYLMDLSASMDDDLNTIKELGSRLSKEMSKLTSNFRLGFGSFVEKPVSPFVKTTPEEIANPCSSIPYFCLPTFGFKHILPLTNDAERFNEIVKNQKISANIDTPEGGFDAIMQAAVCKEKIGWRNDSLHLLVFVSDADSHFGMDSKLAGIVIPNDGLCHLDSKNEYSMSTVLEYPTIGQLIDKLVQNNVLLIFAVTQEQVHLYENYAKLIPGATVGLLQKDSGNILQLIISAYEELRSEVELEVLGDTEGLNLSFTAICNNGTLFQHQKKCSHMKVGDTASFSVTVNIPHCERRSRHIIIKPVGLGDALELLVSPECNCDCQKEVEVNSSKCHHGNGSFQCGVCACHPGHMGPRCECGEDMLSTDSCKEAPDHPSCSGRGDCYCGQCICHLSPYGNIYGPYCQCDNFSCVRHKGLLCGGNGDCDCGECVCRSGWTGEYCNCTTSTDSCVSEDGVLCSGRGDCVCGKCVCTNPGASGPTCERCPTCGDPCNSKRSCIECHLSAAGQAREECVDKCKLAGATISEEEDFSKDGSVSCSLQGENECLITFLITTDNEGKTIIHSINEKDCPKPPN
αvβ1, sequence (P06756 31-992 limits assumed): as the sequence (P06756 31-992 limits assumed) above
αvβ1, sequence (P05556 21-728 limits assumed): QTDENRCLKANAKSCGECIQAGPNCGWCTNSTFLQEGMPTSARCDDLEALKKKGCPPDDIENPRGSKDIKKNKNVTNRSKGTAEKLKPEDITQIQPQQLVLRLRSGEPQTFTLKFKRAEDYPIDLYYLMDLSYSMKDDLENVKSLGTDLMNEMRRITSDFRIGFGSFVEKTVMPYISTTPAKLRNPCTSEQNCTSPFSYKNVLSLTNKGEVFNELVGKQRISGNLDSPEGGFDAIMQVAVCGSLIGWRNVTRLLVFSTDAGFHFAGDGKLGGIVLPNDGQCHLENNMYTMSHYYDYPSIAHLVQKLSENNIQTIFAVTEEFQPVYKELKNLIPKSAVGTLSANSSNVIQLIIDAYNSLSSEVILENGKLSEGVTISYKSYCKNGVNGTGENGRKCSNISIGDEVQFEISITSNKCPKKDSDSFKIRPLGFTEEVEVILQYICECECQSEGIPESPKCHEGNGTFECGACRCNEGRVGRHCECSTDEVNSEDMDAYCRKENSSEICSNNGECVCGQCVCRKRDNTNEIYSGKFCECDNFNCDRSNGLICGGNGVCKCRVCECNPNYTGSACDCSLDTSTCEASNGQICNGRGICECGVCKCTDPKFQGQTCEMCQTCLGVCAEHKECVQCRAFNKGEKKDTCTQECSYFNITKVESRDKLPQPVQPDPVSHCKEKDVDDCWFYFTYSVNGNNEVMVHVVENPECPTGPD

Q: Which results are given for `O=C(O)C[C@H](CO[C@@H]1CCCN(CCCc2ccc3c(n2)NCCC3)C1)c1cccc(-c2ccccc2)c1` [Compound 456]?
A: IC50 (αvβ1): < 100 nM; IC50 (αvβ6): < 100 nM

Q: With `O=C(O)C[C@@H](CC(=O)N[C@@H]1CCN(C(=O)CCCc2ccc3c(n2)NCCC3)C1)c1ccccc1` [Compound 417] as the compound, how does the IC50 (αvβ1) read?
A: Its IC50 is < 100 nM.

Q: And the IC50 (αvβ6)?
A: Its IC50 is 100 to 1000 nM.

Q: Which results are given for `O=C(O)C[C@H](NC[C@@H]1CCCN(CCCc2ccc3c(n2)NCCC3)C1)c1ccccc1` [Compound 292, (S)-3-phenyl-3-(S)-1-(3-(5,6,7,8-tetrahydro-1,8-naphthyridin-2-yl)propyl)piperidin-3-yl)methyl)amino)propanoic acid hydrochloride]?
A: IC50 (αvβ1): > 1000 nM; IC50 (αvβ6): > 1000 nM

Q: `O=C(O)C[C@H](NC(=O)[C@@H]1CCCN(CCCc2ccc3c(n2)NCCC3)C1)c1cccc2c1CCC2` [Compound 211-A, 3-(2,3-dihydro-1H-inden-4-yl)-3-((R)-1-(3-(5,6,7,8-tetrahydro-1,8-naphthyridin-2-yl)propyl)piperidine-3-carboxamido)propanoic acid] was tested. Which IC50 (αvβ1) did it give?
A: The IC50 was < 100 nM.

Q: What about the IC50 (αvβ6) of the same compound?
A: The IC50 was < 100 nM.

Q: Which IC50 (αvβ1) does the source give for `O=C(O)[C@H](CO[C@@H]1CCCN(CCCc2ccc3c(n2)NCCC3)C1)c1ccccc1` [Compound 350] here?
A: Its IC50 is > 1000 nM.

Q: What about the IC50 (αvβ6) of the same compound?
A: Its IC50 is > 1000 nM.

Q: With `O=C(NC[C@H](C(=O)O)c1cc(F)cc(-c2cccc(F)c2)c1)[C@@H]1CCCN(CCCc2ccc3c(n2)NCCC3)C1` [Compound 629] as the compound, how does the IC50 (αvβ1) read?
A: Its IC50 is > 1000 nM.

Q: What about the IC50 (αvβ6) of the same compound?
A: Its IC50 is 100 to 1000 nM.

Q: Which results are given for `O=C(N[C@@H](CNC(=O)[C@@H]1CCCN(CCCc2ccc3c(n2)NCCC3)C1)C(=O)O)c1ccc(F)c(Cl)c1` [Compound 367]?
A: IC50 (αvβ1): < 100 nM; IC50 (αvβ6): < 100 nM

Q: `O=C(O)C[C@H](NC(=O)[C@@H]1CCCN(CCCc2ccc3c(n2)NCCC3)C1)c1cc(Cl)cc(Cl)c1` [Compound 220, (S)-3-(3,5-dichlorophenyl)-3-((R)-1-(3-(5,6,7,8-tetrahydro-1,8-naphthyridin-2-yl)propyl)piperidine-3-carboxamido)propanoic acid] was tested. Which IC50 (αvβ1) did it give?
A: Its IC50 is < 100 nM.

Q: What about the IC50 (αvβ6) of the same compound?
A: Its IC50 is < 100 nM.

Q: With `O=C(O)C[C@@H](CO[C@@H]1CCCN(CCc2ccc3c(n2)NCCC3)C1)c1ccccc1` [Compound 354] as the compound, how does the IC50 (αvβ1) read?
A: The IC50 was > 1000 nM.

Q: What about the IC50 (αvβ6) of the same compound?
A: Its IC50 is > 1000 nM.

Q: With `CNC(=O)[C@@H]1CN(C(=O)CCCc2ccc3c(c2)NCCC3)C[C@H]1NC(=O)CC(CC(=O)O)c1ccccc1` (some centres unmarked) [Compound 606] as the compound, how does the IC50 (αvβ1) read?
A: Its IC50 is < 100 nM.

Q: And the IC50 (αvβ6)?
A: Its IC50 is 100 to 1000 nM.

Q: For `C[C@H]1CC[C@@H](C(=O)N[C@@H](CC(=O)O)c2ccccc2)CN1CCCc1ccc2c(n1)NCCC2` [Compound 554], which IC50 (αvβ1) is on record?
A: Its IC50 is > 1000 nM.

Q: What about the IC50 (αvβ6) of the same compound?
A: The IC50 was 100 to 1000 nM.

Q: For `CN1CCN(c2cccc([C@H](CC(=O)O)NC(=O)[C@@H]3CCCN(CCCc4ccc5c(n4)NCCC5)C3)c2)CC1` [Compound 228, (S)-3-(3-(4-methylpiperazin-1-yl)phenyl)-3-((R)-1-(3-(5,6,7,8-tetrahydro-1,8-naphthyridin-2-yl)propyl)piperidine-3-carboxamido)propanoic acid], which IC50 (αvβ1) is on record?
A: Its IC50 is < 100 nM.

Q: And the IC50 (αvβ6)?
A: The IC50 was < 100 nM.

Q: Which IC50 (αvβ1) does the source give for `O=C(O)[C@@H](CCO[C@@H]1CCCN(CCCCc2ccc3c(n2)NCCC3)C1)NC(=O)C12CCC(CC1)CC2` [Compound 384] here?
A: The IC50 was > 1000 nM.

Q: And the IC50 (αvβ6)?
A: Its IC50 is > 1000 nM.

Q: For `Cc1cc(C(F)(F)F)nn1-c1cccc([C@H](CO[C@@H]2CCCN(CCCc3ccc4c(n3)NCCC4)C2)CC(=O)O)c1` [Compound 577], which IC50 (αvβ1) is on record?
A: Its IC50 is < 100 nM.

Q: And the IC50 (αvβ6)?
A: The IC50 was < 100 nM.

Q: Which results are given for `O=C(O)C[C@@H](NC(=O)[C@@H]1CCCN(CCCc2ccc3c(n2)NCCC3)C1)c1ccccc1C1CC1` [Compound 345]?
A: IC50 (αvβ1): > 1000 nM; IC50 (αvβ6): > 1000 nM

Q: For `C[C@H]1C[C@@H](C(=O)NC[C@@H](C(=O)O)c2cccc(-c3ccccc3)c2)CN(CCCc2ccc3c(n2)NCCC3)C1` [Compound 646], which IC50 (αvβ1) is on record?
A: Its IC50 is > 1000 nM.

Q: And the IC50 (αvβ6)?
A: The IC50 was 100 to 1000 nM.

Q: What does the source list for `Cc1csc2ncnc(N[C@@H](CCO[C@@H]3CCCN(CCCc4ccc5c(n4)NCCC5)C3)C(=O)O)c12` [Compound 473]?
A: IC50 (αvβ1): > 1000 nM; IC50 (αvβ6): > 1000 nM

Q: With `Nc1nnc(C(=O)N[C@@H](CNC(=O)[C@@H]2CCCN(CCCc3ccc4c(n3)NCCC4)C2)C(=O)O)o1` [Compound 348] as the compound, how does the IC50 (αvβ1) read?
A: Its IC50 is < 100 nM.

Q: What about the IC50 (αvβ6) of the same compound?
A: Its IC50 is < 100 nM.

Q: Which IC50 (αvβ1) does the source give for `Cc1cc(C(F)(F)F)nn1-c1cccc([C@@H](CO[C@@H]2CCCN(CCCc3ccc4c(n3)NCCC4)C2)CC(=O)O)c1` [Compound 576] here?
A: Its IC50 is < 100 nM.

Q: And the IC50 (αvβ6)?
A: The IC50 was < 100 nM.

Q: How did the IC50 (αvβ1) turn out when `O=C(NC[C@H](C(=O)O)c1cnc2[nH]ccc2c1)[C@@H]1CCCN(CCCc2ccc3c(n2)NCCC3)C1` [Compound 325] was run?
A: Its IC50 is < 100 nM.

Q: And the IC50 (αvβ6)?
A: Its IC50 is < 100 nM.

Q: `O=C(NC[C@H](NC(=O)[C@H]1CC2CCC1CC2)C(=O)O)[C@@H]1CCCN(CCCc2ccc3c(n2)NCCC3)C1` [Compound 305] was tested. Which IC50 (αvβ1) did it give?
A: The IC50 was < 100 nM.

Q: And the IC50 (αvβ6)?
A: The IC50 was < 100 nM.

Q: `O=C(NC[C@@H](C(=O)O)c1cccc2cn([C@H]3CCC(F)(F)C3)nc12)[C@@H]1CCCN(CCCc2ccc3c(n2)NCCC3)C1` [Compound 624] was tested. Which IC50 (αvβ1) did it give?
A: Its IC50 is 100 to 1000 nM.

Q: What about the IC50 (αvβ6) of the same compound?
A: The IC50 was > 1000 nM.

Q: What does the source list for `O=C(O)[C@@H](CO[C@@H]1CCCN(CCCCc2ccc3c(n2)NCCC3)C1)NC(=O)C12CCC(CC1)CC2` [Compound 401]?
A: IC50 (αvβ1): > 1000 nM; IC50 (αvβ6): > 1000 nM

Q: What does the source list for `O=C(O)C[C@H](CN[C@@H]1CCCN(CCCc2ccc3c(n2)NCCC3)C1)c1ccccc1` [Compound 295, (S)-3-phenyl-4-(((R)-1-(3-(5,6,7,8-tetrahydro-1,8-naphthyridin-2-yl)propyl)piperidin-3-yl)amino)butanoic acid]?
A: IC50 (αvβ1): < 100 nM; IC50 (αvβ6): < 100 nM

Q: For `O=C(O)CC(NC(=O)[C@@H]1CCCN(CCCc2ccc3c(n2)NCCC3)C1)c1cnn(-c2ccccc2)c1` (stereo partly drawn) [Compound 233, 3-(1-phenyl-1H-pyrazol-4-yl)-3-((R)-1-(3-(5,6,7,8-tetrahydro-1,8-naphthyridin-2-yl)propyl)piperidine-3-carboxamido)propanoic acid hydrochloride], which IC50 (αvβ1) is on record?
A: Its IC50 is < 100 nM.

Q: And the IC50 (αvβ6)?
A: Its IC50 is < 100 nM.

Q: Which IC50 (αvβ1) does the source give for `O=C(O)[C@H](CO[C@@H]1CCCN(CCCCc2ccc3c(n2)NCCC3)C1)Nc1ncnc2ccccc12` [Compound 409] here?
A: The IC50 was > 1000 nM.

Q: And the IC50 (αvβ6)?
A: Its IC50 is < 100 nM.

Q: What does the source list for `O=C(CC[C@H](C(=O)O)c1ccccc1)N[C@@H]1CCN(CCCCc2ccc3c(n2)NCCC3)C1` [Compound 420]?
A: IC50 (αvβ1): > 1000 nM; IC50 (αvβ6): > 1000 nM

Q: What does the source list for `CC1(C)CCN(c2cccc([C@H](CO[C@@H]3CCCN(CCCc4ccc5c(n4)NCCC5)C3)CC(=O)O)c2)CC1` [Compound 573]?
A: IC50 (αvβ1): 100 to 1000 nM; IC50 (αvβ6): 100 to 1000 nM

Q: Which results are given for `O=C(O)[C@H](CO[C@@H]1CCCN(CCCc2ccc3c(n2)NCCC3)C1)NC(=O)C12CCC(CC1)CC2` [Compound 400]?
A: IC50 (αvβ1): < 100 nM; IC50 (αvβ6): < 100 nM

Q: Which results are given for `O=C(O)C[C@@H](NC(=O)[C@@H]1CCCN(CCCc2ccc3c(n2)NCCC3)C1)c1cnc2ccccc2n1` [Compound 374]?
A: IC50 (αvβ1): 100 to 1000 nM; IC50 (αvβ6): < 100 nM

Q: `CC1(C)CN(c2cccc([C@@H](CNC(=O)[C@@H]3CCCN(CCCc4ccc5c(n4)NCCC5)C3)C(=O)O)c2)CCO1` [Compound 595] was tested. Which IC50 (αvβ1) did it give?
A: Its IC50 is < 100 nM.

Q: And the IC50 (αvβ6)?
A: Its IC50 is < 100 nM.

Q: `O=C(O)C[C@H](NC(=O)[C@@H]1CCCN(CCCc2ccc3c(n2)NCCC3)C1)c1ccc2c(c1)C1(CC2)CC1` [Compound 541] was tested. Which IC50 (αvβ1) did it give?
A: Its IC50 is < 100 nM.

Q: What about the IC50 (αvβ6) of the same compound?
A: The IC50 was < 100 nM.

Q: Which results are given for `O=C(O)[C@@H](CO[C@@H]1CCCN(CCCc2ccc3c(n2)NCCC3)C1)c1ccccc1` [Compound 352]?
A: IC50 (αvβ1): > 1000 nM; IC50 (αvβ6): > 1000 nM

Q: For `O=C(O)C(CCO[C@@H]1CCCN(CCCc2ccc3c(n2)NCCC3)C1)c1ccnc(-c2ccccc2)c1` (some centres unmarked) [Compound 505], which IC50 (αvβ1) is on record?
A: Its IC50 is > 1000 nM.

Q: And the IC50 (αvβ6)?
A: The IC50 was > 1000 nM.
